Assay results as given in patent publication US20100137134A1, “Pesticidal Mixtures” (priority 2005, published 2010).

Assays:
[1] = tested on: vetch aphid (Megoura viciae); assay: Control of vetch aphid on broad bean leaf disks in 24-well microtiter plates (Test B.1); assay type: in vivo
Protocol: For evaluating control of vetch aphid (Megoura viciae) through contact or systemic means the test unit consisted of 24-well-microtiter plates containing broad bean leaf disks.
The compounds or mixtures were formulated using a solution containing 75% water and 25% DMSO (dimethylsulfoxid). Different concentrations of formulated compounds or mixtures were sprayed onto the leaf disks at 2.5 μl, using a custom built micro atomizer, at two replications.
(§1) For experimental mixtures in these tests identical volumes of both mixing partners at the desired concentrations respectively, were mixed together.
After application, the leaf disks were air-dried and 5-8 adult aphids placed on the leaf disks inside the microtiter plate wells. The aphids were then allowed to suck on the treated leaf disks and incubated at 23±1° C., 50±5% RH (room humidity) for 5 days. Aphid mortality and fecundity was then visually assessed.

[2] = tested on: boll weevil (Anthonomus grandis); assay: Control of boll weevil, insect diet with eggs in 24-well microtiter plates (Test B.2); assay type: in vivo
Protocol: For evaluating control of boll weevil (Anthonomus grandis) the test unit consisted of 24-well-microtiter plates containing an insect diet and 20-30 A. grandis eggs.
The compounds or mixtures were formulated using a solution containing 75% water and 25% DMSO. Different concentrations of formulated compounds or mixtures were sprayed onto the […] at 20 μl, using a custom built micro atomizer, at two replications.
as §1
After application, microtiter plates were incubated at 23±1° C., 50±5% RH (room humidity) for 5 days. Egg and larval mortality was then visually assessed.

Cc1cc(C#N)cc(C(N)=O)c1NC(=O)c1cc(Br)nn1-c1ncccc1Cl [IA-26/T4]
Average (Control %) ([1]; test compound alone, 0.1 ppm (0 + 0.1), 5 days): 0%
Average (Control %) ([2]; test compound alone, 0.3 ppm (0 + 0.3), 5 days): 0%

O=[N+]([O-])NC1=NCCN1Cc1ccc(Cl)nc1 [Imidacloprid, reference compound]
Average (Control %) ([1]; Imidacloprid alone, 1 ppm (1 + 0), aphid mortality and fecundity after 5 days): 25%
Average (Control %) ([2]; Imidacloprid alone, 10 ppm (10 + 0), egg and larval mortality after 5 days): 0%

Cc1cc(C#N)cc(C(=O)NC2CC2)c1NC(=O)c1cc(Br)nn1-c1ncccc1Cl [IA-326/T4]
Average (Control %) ([2]; test compound alone, 0.01 ppm (0 + 0.01), 5 days): 0%
Average (Control %) ([2]; test compound alone, 0.03 ppm (0 + 0.03), 5 days): 0%
